Assay results taken from BindingDB's records for doi:10.1021/jm981008a (1998).
pIC50: −log10 of the molar value.

How the values were obtained:
[1] = molecular target: Sodium-dependent noradrenaline transporter (Homo sapiens, UniProt P23975); experiment: The compound was tested in vitro for binding affinity for the norepinephrine transporter (NET) using competitive binding assay.
[2] = molecular target: Sodium-dependent serotonin transporter (Homo sapiens, UniProt P31645); experiment: The compound was tested in vitro for binding affinity for the serotonin transporter (5-HTT) using competitive binding assay.
[3] = molecular target: T1, Sodium-dependent dopamine transporter (Homo sapiens, UniProt Q01959); experiment: The compound was tested in vitro for high binding affinity for the Dopamine transporter (DAT) using competitive binding assay.
[4] = molecular target: T1, Sodium-dependent dopamine transporter; experiment: The compound was tested in vitro for low binding affinity for the Dopamine transporter (DAT) using competitive binding assay.

T1 sequence (Q01959 whole entry): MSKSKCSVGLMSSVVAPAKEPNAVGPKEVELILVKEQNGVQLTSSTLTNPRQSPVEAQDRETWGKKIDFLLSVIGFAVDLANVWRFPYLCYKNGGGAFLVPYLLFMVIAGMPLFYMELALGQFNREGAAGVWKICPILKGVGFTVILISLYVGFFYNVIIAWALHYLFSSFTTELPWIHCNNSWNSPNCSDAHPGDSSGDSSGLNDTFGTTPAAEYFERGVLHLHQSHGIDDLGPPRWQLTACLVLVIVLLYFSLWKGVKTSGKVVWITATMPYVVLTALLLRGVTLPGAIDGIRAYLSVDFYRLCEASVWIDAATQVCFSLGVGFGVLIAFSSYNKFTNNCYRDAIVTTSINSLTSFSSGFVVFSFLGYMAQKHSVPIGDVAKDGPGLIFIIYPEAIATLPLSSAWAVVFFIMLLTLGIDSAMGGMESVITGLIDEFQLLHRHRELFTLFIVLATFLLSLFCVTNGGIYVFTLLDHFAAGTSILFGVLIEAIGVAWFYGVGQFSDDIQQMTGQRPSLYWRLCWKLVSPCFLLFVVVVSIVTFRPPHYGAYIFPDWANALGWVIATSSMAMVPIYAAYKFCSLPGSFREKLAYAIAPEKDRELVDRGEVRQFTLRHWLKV
Chain of Sodium-dependent serotonin transporter (P31645 whole entry): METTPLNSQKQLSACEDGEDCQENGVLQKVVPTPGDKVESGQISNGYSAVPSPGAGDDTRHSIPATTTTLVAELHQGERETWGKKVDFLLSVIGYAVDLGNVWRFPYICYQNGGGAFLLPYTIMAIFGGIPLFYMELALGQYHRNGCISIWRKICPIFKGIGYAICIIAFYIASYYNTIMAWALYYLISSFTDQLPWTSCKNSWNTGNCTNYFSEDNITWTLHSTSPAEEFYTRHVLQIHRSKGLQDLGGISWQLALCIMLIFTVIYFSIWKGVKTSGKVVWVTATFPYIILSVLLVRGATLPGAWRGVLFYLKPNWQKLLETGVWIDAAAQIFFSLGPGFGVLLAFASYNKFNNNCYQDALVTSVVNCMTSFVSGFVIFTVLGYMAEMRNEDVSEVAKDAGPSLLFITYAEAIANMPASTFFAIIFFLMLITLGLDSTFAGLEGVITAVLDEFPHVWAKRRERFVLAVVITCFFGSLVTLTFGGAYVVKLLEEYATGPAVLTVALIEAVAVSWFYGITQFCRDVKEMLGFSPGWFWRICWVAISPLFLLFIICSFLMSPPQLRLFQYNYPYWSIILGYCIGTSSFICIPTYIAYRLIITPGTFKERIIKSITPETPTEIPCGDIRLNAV
Chain of Sodium-dependent noradrenaline transporter (P23975 whole entry): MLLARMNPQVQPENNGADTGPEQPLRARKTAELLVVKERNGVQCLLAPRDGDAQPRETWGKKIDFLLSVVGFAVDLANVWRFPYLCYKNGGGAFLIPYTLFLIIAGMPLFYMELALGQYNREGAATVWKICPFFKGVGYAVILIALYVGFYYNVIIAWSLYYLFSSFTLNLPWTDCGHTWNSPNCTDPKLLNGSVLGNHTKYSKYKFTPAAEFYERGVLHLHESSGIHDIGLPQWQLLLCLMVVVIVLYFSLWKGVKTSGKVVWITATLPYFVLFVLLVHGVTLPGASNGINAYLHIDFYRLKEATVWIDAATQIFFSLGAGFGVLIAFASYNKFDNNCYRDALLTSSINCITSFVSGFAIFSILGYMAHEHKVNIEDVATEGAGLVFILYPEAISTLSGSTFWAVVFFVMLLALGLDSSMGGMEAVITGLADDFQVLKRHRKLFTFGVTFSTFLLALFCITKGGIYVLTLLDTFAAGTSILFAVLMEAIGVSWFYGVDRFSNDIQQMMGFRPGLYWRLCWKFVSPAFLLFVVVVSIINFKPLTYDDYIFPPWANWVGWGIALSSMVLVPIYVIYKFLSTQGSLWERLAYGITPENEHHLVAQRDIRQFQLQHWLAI

CN1C2CCC1[C@@H](COC(=O)CC[S+]1CC[S+](C)[Re]1([Br])([CH]=O)([CH]=O)[CH]=O)[C@@H](c1ccc(F)cc1)C2 (some centres undefined) [Rhenium complex of 3-(2-Bromo-2,2,2-triformyl-3-methyl-1lambda*4*,2lambda*6*,3lambda*4*-[1,2,3]dithiolan-1-yl)-propionic acid 3-(4-fluoro-phenyl)-8-methyl-8-aza-bicyclo[3.2.1]oct-2-ylmethyl ester]
pIC50 [1]: 8.14
pIC50 [2]: 7.14
pIC50 [3]: 9.84
pIC50 [4]: 7.70
